Experimental data: ChEMBL document CHEMBL1201862, “PubChem BioAssay data set” (2004)
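Exposure lasted 48 hours, with cells grown in 96-well plates and compounds tested at five concentrations. GI50 = concentration required for 50% inhibition of growth.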 Activity calls are given as the source filed them. Cut-off read from the data, not from the text of the source: active = GI50 up to about 1.1 µM and inactive = higher.

Tests used:
Experiment in all cases: NCI anticancer screen, dose series, 48 h
[1] = test system: CAKI-1
[2] = test system: A498
[3] = test system: LOX IMVI
[4] = test system: OVCAR-3
[5] = test system: MCF7
[6] = test system: M14
[7] = test system: NCI-H23
[8] = test system: U-251
[9] = test system: SW-620
[10] = test system: 786-0
[11] = test system: SR
[12] = test system: PC-3
[13] = test system: SK-OV-3
[14] = test system: MDA-N
[15] = test system: TK-10
[16] = test system: UO-31
[17] = test system: HOP-92

Measured: GI50

Cc1ccc(NC(=O)/C=C/c2ccccc2)c(C)c1
inactive: [1] > 100 µM | [2] > 100 µM | [3] > 100 µM | [4] > 100 µM | [5] > 100 µM | [6] > 100 µM | [7] > 100 µM | [8] 76 µM | [9] > 100 µM | [10] 74.5 µM | [11] > 100 µM | [12] > 100 µM | [13] 43.2 µM | [14] > 100 µM | [15] > 100 µM

O=Cc1c2ccccc2n2ccc3c4ccccc4[nH]c3c12
inactive: [1] > 10 µM | [3] > 10 µM | [4] > 10 µM | [16] > 10 µM | [5] 5.21 µM | [6] > 10 µM | [7] > 10 µM | [8] > 10 µM | [9] > 10 µM | [10] > 10 µM | [11] 8.77 µM | [12] > 10 µM | [13] > 10 µM | [14] > 10 µM | [15] > 10 µM | [17] > 10 µM

O=C(Cn1cc(F)c(=O)[nH]c1=O)C12CC3CC(CC(C3)C1)C2
inactive: [1] > 100 µM | [2] > 100 µM | [3] > 100 µM | [4] > 100 µM | [16] > 100 µM | [5] > 100 µM | [6] > 100 µM | [7] > 100 µM | [8] > 100 µM | [9] > 100 µM | [10] > 100 µM | [11] > 100 µM | [12] > 100 µM | [13] > 100 µM | [14] > 100 µM | [15] > 100 µM

O=[N+]([O-])c1cccc2nccc(NCCCO)c12
inactive: [1] 13.8 µM | [2] 10.4 µM | [3] 12.9 µM | [4] 14.6 µM | [16] 16 µM | [5] 12.7 µM | [6] 12.9 µM | [7] 12.5 µM | [8] 14.1 µM | [9] 13.3 µM | [10] 17.7 µM | [11] 7.66 µM | [12] 20.7 µM | [13] 23.3 µM | [14] 9.66 µM | [15] 8.79 µM

Oc1ccc(O)c(CNc2ccccc2)c1
inactive: [1] 6.89 µM | [3] 6.15 µM | [4] 4.62 µM | [16] 10.7 µM | [5] 15.1 µM | [6] 15.7 µM | [7] 10.2 µM | [8] 17.1 µM | [9] 13.6 µM | [10] 10.3 µM | [11] 2.29 µM | [12] 10.1 µM | [13] 19.2 µM | [14] 3.85 µM | [15] 22.7 µM | [17] 5.07 µM

CC(=O)OCC1OC(N2C(=S)N[C@H]([C@@H](O)[C@H](O)[C@H](O)CO)[C@H]2O)C(OC(C)=O)C(OC(C)=O)C1OC(C)=O (some centres undefined)
inactive: [1] > 100 µM | [4] > 100 µM | [16] > 100 µM | [5] > 100 µM | [6] > 100 µM | [7] > 100 µM | [8] > 100 µM | [9] > 100 µM | [10] > 100 µM | [11] > 100 µM | [12] > 100 µM | [13] > 100 µM | [14] > 100 µM | [17] > 100 µM

O=C(N/C(=C\c1ccccc1)c1nc2ccccc2c(=O)o1)c1ccccc1
inactive: [1] > 78.3 µM | [2] > 100 µM | [3] 27.3 µM | [4] > 70.5 µM | [16] > 41.6 µM | [5] 5.38 µM | [6] > 79.6 µM | [7] 46.3 µM | [8] 33.8 µM | [9] > 88.3 µM | [10] 41.7 µM | [11] > 100 µM | [12] > 100 µM | [13] 59.2 µM | [14] > 53 µM | [15] > 100 µM

CC(C)c1ccc2c(c1)C=C1OC(=O)[C@]3(C)CCC[C@@]2(C)C13 (some centres undefined)
inactive: [1] > 100 µM | [4] > 100 µM | [16] > 100 µM | [5] > 100 µM | [6] > 100 µM | [7] > 100 µM | [8] > 100 µM | [9] > 100 µM | [10] > 100 µM | [11] > 100 µM | [12] > 100 µM | [13] > 100 µM | [14] > 100 µM | [15] > 100 µM

COc1ccc2nc(-c3ccc(O)cc3)sc2c1
inactive: [1] 29.3 µM | [2] 30.3 µM | [3] 22.6 µM | [4] 19.6 µM | [16] 16.1 µM | [5] 34.7 µM | [6] 22.7 µM | [7] 20.8 µM | [8] 19.6 µM | [9] 21.8 µM | [10] 15.6 µM | [11] 4.86 µM | [12] 18.5 µM | [13] 32.5 µM | [14] 22.5 µM | [15] 34.7 µM
